Patent US9643933B2, “Compounds useful as antibiotic tolerance inhibitors” (priority 2013, dated 2017)
Like-named read-outs stand apart in the source and are kept apart here.

What was measured:
PQS = PQS Inhibition Assay (24 Hour Incubation); type: cell-based, P. aeruginosa PA14 wild-type strain
Protocol: Test compounds are dissolved in DMSO at 10 mM and stored at −20° C. until needed. Seven test concentrations from 0.0032 micromolar to 31.6 micromolar are used for each compound. P. aeruginosa PA14 wild-type strain is inoculated into 5 mL LB broth in a 15-mL sterile glass culture tube and incubated overnight at 37° C. under shaking (˜240 rpm). The overnight culture is then diluted in LB Broth to give an OD600=0.04 (T0 culture). Colony Forming Units (CFU)/mL of the overnight culture and T0 culture are determined by a series of 1:10 serial dilutions in sterile saline. 4×20 μL of each dilution is seeded on LB agar plates and incubated at 35±2° C. for 20 hours. CFU/mL is determined from the dilution that gives 2 to 50 colonies/20 μL.
For concentration response curve (CRC) experiments, internal standard (2-((5-nitro-1H-indol-2-yl)thio)-N-(4-phenoxyphenyl)acetamide)) and test compounds are serially diluted in DMSO to give 200 times of each final concentration (0.5% DMSO final), and 1 μL/well is dispensed in duplicate into 2-mL wells of a 96 well deep well plate. 200 μL/well of T0 culture is added to each internal standard/test compound well used to determine PQS control level. Wells containing only LB broth (blank wells) are also included in the plate.
The plate is sealed and incubated at 37° C. for 24 hours under shaking (˜700 rpm) using a microtiter shaker. At the end of the incubation period, 150 μL/well of the deep well plate culture are transferred in a new non-sterile plate, and 150 μL/well of methanol containing tetra-deuterated PQS (D4-PQS) and 2% acetic acid are added to each well. The plate is sealed, shaken at high speed for 5 minutes and centrifuged at 4,000 g for 40 minutes at room temperature. 100 μL/well of the supernatant is then transferred to glass vials (vials crimp 0.2 mL) and kept at 4° C. until LC-MS/MS analysis.
PQSs quantification is carried out by analyzing samples in discrete batches together with spiked standards and blank samples.
Calibration curves are constructed from PQS standards, and respective deuterated PQS is used as an Internal Standards (IS) to calculate the concentration of analytes in the sample and improve the precision of the assay. The back-calculated concentrations of the calibration standards from the calibration curve shall be within ±20% of the nominal values, the range of the analytical method is determined, and the lower and upper limit of quantification specified.
Liquid chromatography separations are performed using an Agilent HP1100 system (Agilent Technologies) coupled with a CTC PAL Autosampler (CTC Analytics AG). Chromatographic retention is obtained using a monolithic column (Chromolith® RP-18, 50×4.6 mm). The solvent system consists of water containing 0.1% (v/v) formic acid (A) and acetonitrile containing 0.1% (v/v) formic acid (B). The gradient elution profile is chosen as follows: 0 min: 70% A (1500 μL/min), 0.3 min: 70% A (1500 μL/min), 1.3 min: 5% A (2500 μL/min), 1.6 min: 5% A (2500 μL/min).
The MS/MS analysis is performed with an API4000 series mass spectrometer (AB Sciex™) operating in Multiple Reaction Monitoring (MRM) mode and equipped with a TIS ion source. The specific ions monitored are PQS (m/z 260→m/z 175) and D4-PQS (m/z 264→m/z 179). The computer systems used in this study to acquire and quantify data may be an Analyst™ v1.5.
PQS in the presence of different concentrations of test compound are expressed as percentage of inhibition of the basal level in control samples. Curve fitting and IC50 estimations are carried out using a four parameter logistic model using GraphPad Prism v.5 program.

Pyocyanin = Pyocyanin Inhibition Assay; type: cell-based, P. aeruginosa, strain PA14
How it was run: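 P. aeruginosa PA14 at OD600=0.04 in LB grown 24 h at 37° C with shaking alongside compound (0.0032-31.6 micromolar, seven points, 0.5% DMSO final). Pyocyanin in supernatant quantified from A690 (ε 4,310 M^−1 cm^−1); % inhibition versus untreated culture, IC50 by four-parameter logistic fit.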

[1] = Pseudomonas aeruginosa, PA14, 24 h, read-out: PQS (24 hr) IC50 (μM)
[2] = Pseudomonas aeruginosa, PA14, 24 h, read-out: Pyocyanin Inhibition No. IC50 (μM)

Compound	IC50 (PQS; P. aeruginosa PA14 culture, 24 hours incubation, PQS by LC-MS/MS, read-out: PQS (24 hr) IC50) [µM]	IC50 (Pyocyanin; P. aeruginosa PA14 culture, 24 hours at 37° C., pyocyanin in supernatant by absorbance at 690 nm, read-out: Pyocyanin Inhibition No. IC50) [µM]	IC50 (PQS; [1]) [µM]	IC50 (Pyocyanin; [2]) [µM]
2-((5-chloro-1H-benzo[d]imidazol-2-yl)thio)-N-(4-(pyrimidin-5-yloxy)phenyl)acetamide [Compound 79]	< 1	< 0.1	–	–
N#Cc1ccc(NC(=O)CSc2nc3cc(C(F)(F)F)ccc3[nH]2)cc1 [Compound 56]	–	–	< 1	< 0.1
N#Cc1ccc(NC(=O)CSc2nc3cc(F)ccc3[nH]2)cc1 [Compound 57]	–	–	1 to 5	0.1 to 1
O=C(CNc1nc2cc(Cl)ccc2s1)Nc1ccc(Oc2cccnc2)cc1 [Compound 71, 2-((5-chlorobenzo[d]thiazol-2-yl)amino)-N-(4-(pyridin-3-yloxy)phenyl)acetamide]	–	–	5 to 10	0.1 to 1
O=C(CNc1nc2cc(Cl)ccc2o1)Nc1ccc(Oc2cccnc2)cc1 [Compound 74, 2-((5-chlorobenzo[d]oxazol-2-yl)amino)-N-(4-(pyridin-3-yloxy)phenyl)acetamide]	–	–	1 to 5	0.1 to 1
O=C(CSc1nc2cc(Cl)ccc2[nH]1)Nc1ccc(Oc2cccnc2)cc1 [Compound 77, 2-((5-chloro-1H-benzo[d]imidazol-2-yl)thio)-N-(4-(pyridin-3-yloxy)phenyl)acetamide]	–	–	< 1	< 0.1
O=C(CSc1nc2cc(Cl)ccc2[nH]1)Nc1ccc(Oc2cccnc2Cl)cc1 [Compound 83, 2-((5-chloro-1H-benzo[d]imidazol-2-yl)thio)-N-(4-((2-chloropyridin-3-yl)oxy)phenyl)acetamide]	–	–	< 1	< 0.1
O=C(CSc1nc2cc(Cl)ccc2[nH]1)Nc1ccc(Oc2ccc(Cl)nc2)cc1 [Compound 84, 2-((5-chloro-1H-benzo[d]imidazol-2-yl)thio)-N-(4-((6-chloropyridin-3-yl)oxy)phenyl)acetamide]	–	–	1 to 5	< 0.1
O=C(CCc1nc2cc(Cl)ccc2s1)Nc1ccc(Oc2cccnc2)cc1 [Compound 85, 3-(5-chlorobenzo[d]thiazol-2-yl)-N-(4-(pyridin-3-yloxy)phenyl)propanamide]	–	–	> 10	0.1 to 1
O=C(CCc1nc2ccc(Cl)cc2s1)Nc1ccc(Oc2cccnc2)cc1 [Compound 86, 3-(6-Chlorobenzo[d]thiazol-2-yl)-N-(4-(pyridin-3-yloxy)phenyl)propanamide]	–	–	> 10	0.1 to 1
N#Cc1ccc(NC(=O)CSc2nc3ccc(C#N)cc3[nH]2)cc1 [Compound 93]	–	–	< 1	0.1 to 1
N#Cc1ccc2nc(SCC(=O)Nc3ccc(Cl)cc3)[nH]c2c1 [Compound 94]	–	–	1 to 5	0.1 to 1
N#Cc1ccc(NC(=O)CSc2nc3cc(Br)ccc3[nH]2)cc1 [Compound 96]	–	–	< 1	< 0.1
N#Cc1ccc(NC(=O)CSc2nc3cc(OC(F)F)ccc3[nH]2)cc1 [Compound 104]	–	–	5 to 10	0.1 to 1
O=C(CSc1nc2cc(C(F)(F)F)ccc2[nH]1)Nc1ccc(Cl)cc1 [Compound 105]	–	–	1 to 5	0.1 to 1
O=C(CSc1nc2cc(F)ccc2[nH]1)Nc1ccc(Cl)cc1 [Compound 110]	–	–	5 to 10	0.1 to 1
O=C(CSc1nc2ccc(-n3cccn3)cc2[nH]1)Nc1ccc(Cl)cc1 [Compound 116]	–	–	> 10	0.1 to 1
N#Cc1ccc(NC(=O)CSc2nc3cc(Cl)ccc3[nH]2)cc1 [Compound 125]	–	–	< 1	< 0.1
O=C(CSc1nc2cc(F)c(F)cc2[nH]1)Nc1ccc(Br)cc1 [Compound 126]	–	–	> 10	0.1 to 1
O=C(CSc1nc2ccc(Cl)cc2[nH]1)Nc1ccc(Cl)cc1 [Compound 137]	–	–	1 to 5	0.1 to 1
COc1ccc(NC(=O)CSc2nc3ccc(Cl)cc3[nH]2)cc1 [Compound 140]	–	–	5 to 10	0.1 to 1
N#Cc1ccc(NC(=O)CSc2nc3cc(Cl)ccc3[nH]2)cc1Cl [Compound 142]	–	–	< 1	0.1 to 1
O=C(CSc1nc2ccc(Br)cc2[nH]1)Nc1ccc(Cl)cc1 [Compound 145]	–	–	> 10	0.1 to 1
N#Cc1ccc(NC(=O)CSc2nc3cc(Br)ccc3o2)cc1 [Compound 147]	–	–	1 to 5	0.1 to 1
O=C(CCc1nc2ccc(Cl)cc2[nH]1)Nc1ccc(Oc2cccnc2)cc1 [Compound 152, 3-(5-chloro-1H-benzo[d]imidazol-2-yl)-N-(4-(pyridin-3-yloxy)phenyl)propanamide]	–	–	1 to 5	0.1 to 1
